Test system: Escherichia coli
Assay: Antibacterial activity against Escherichia coli BW25113 assessed as prevention visible bacterial growth incubated for 18 hrs
Type: functional
Details: BW25113, 18 h

Substance | MIC99 [µM]
H-RRIRPRFPRLPRPRPR-OH | 8
H-RRIRPRPPRLPRERPR-OH | 64
H-RRIRPWPPRLPRPRPR-OH | 8
H-RRIRPRPWRLPRPRPR-OH | 4
H-RRIRWRPPRLPRPRPR-OH | 4
H-RRIRPRPPRLPSPRPR-OH | 16
H-RRIRPRPPRLPRPRGR-OH | 16
H-GRIRPRPPRLPRPRPR-OH | 8
H-RRIRPRPPRLPRPEPR-OH | 64
H-REIRPRPPRLPRPRPR-OH | 64
H-FRIRPRPPRLPRPRPR-OH | 4
H-RRIRPRPPREPRPRPR-OH | > 64
H-RRIRGRPPRLPRPRPR-OH | 8
H-RRIRPRPPALPRPRPR-OH | 64
H-ERIRPRPPRLPRPRPR-OH | 64
H-RRIRPRPGRLPRPRPR-OH | 16
H-RRERPRPPRLPRPRPR-OH | 64
H-RRIRPRPPRLRRPRPR-OH | 16
H-RRIRPRPPRLPRPRPA-OH | 16
H-RRIRPRPPRLPRSRPR-OH | 16
H-RRIRPRPPRFPRPRPR-OH | 32
H-RRIRPRPPFLPRPRPR-OH | 16
H-RRIRPGPPRLPRPRPR-OH | 32

Other lines, results leading:

MIC99 [µM] | Substance
64 | H-RRIRPRPPRPPRPRPR-OH
32 | H-RRIRPRPPRLPRPRPP-OH
64 | H-RRIRPRPPRAPRPRPR-OH
16 | H-RRIRPRPPRLPRARPR-OH
8 | H-RRIRPRRPRLPRPRPR-OH
32 | H-RRIRPRPPRLPRPPPR-OH
8 | H-RRIRPRPPRLPRFRPR-OH
32 | H-RRIRPRPPRLGRPRPR-OH
16 | H-RRIRPRPPRLPRPRPG-OH
> 64 | H-RRIRPRPPRLPEPRPR-OH
4 | H-ARIRPRPPRLPRPRPR-OH
16 | H-RRSRPRPPRLPRPRPR-OH
16 | H-RRFRPRPPRLPRPRPR-OH
16 | H-RRIRPRPPPLPRPRPR-OH
8 | H-RRIRPRPPRLPWPRPR-OH
32 | H-RRIRPRPPRRPRPRPR-OH
32 | H-RRIRPSPPRLPRPRPR-OH

MIC99 [µM] | Substance
> 64 | H-RRIRPRPPELPRPRPR-OH
16 | H-RRIRPRPPRLPRPRSR-OH
32 | H-RRIRPRPPRLPRPSPR-OH
4 | H-RRIRPRPPRLPRPWPR-OH
16 | H-RRGRPRPPRLPRPRPR-OH
64 | H-RRIRPRPPRLERPRPR-OH
32 | H-RRIRERPPRLPRPRPR-OH
16 | H-RRIRPRPFRLPRPRPR-OH
32 | H-RRISPRPPRLPRPRPR-OH
16 | H-RRIRPRPPRLPRPRRR-OH
8 | H-RRIRPRPPRLPRPRFR-OH
32 | H-RRIRPREPRLPRPRPR-OH
32 | H-RRIRPRPPRLPRPGPR-OH
16 | H-RSIRPRPPRLPRPRPR-OH
16 | H-RRIFPRPPRLPRPRPR-OH
64 | H-RRIRPRPPGLPRPRPR-OH
8 | H-RRIRPRPPRLPRPRPW-OH

From ChEMBL document CHEMBL4622980, “Peptide Inhibitors of Bacterial Protein Synthesis with Broad Spectrum and SbmA-Independent Bactericidal Activity against Clinical Pathogens” (J Med Chem, 2020)
